Data: PMC4970648, “Studies on 16α-Hydroxylation of Steroid Molecules and Regioselective Binding Mode in Homology-Modeled Cytochrome P450-2C11” (International Journal of Medicinal Chemistry, 2010)

The compounds below were run against [3H]PROG 16α-hydroxylating activity by male rat liver microsomes (CYP2C11) (Rattus norvegicus, UniProt P08683) (assay: Inhibition of [3H]progesterone 16α-hydroxylation by adult male rat liver microsomes). Settings: 40% inhibition not reached at 10 μM of unlabeled steroid; male rat liver microsomes.
Chain of [3H]PROG 16α-hydroxylating activity by male rat liver microsomes (CYP2C11) (P08683 whole entry): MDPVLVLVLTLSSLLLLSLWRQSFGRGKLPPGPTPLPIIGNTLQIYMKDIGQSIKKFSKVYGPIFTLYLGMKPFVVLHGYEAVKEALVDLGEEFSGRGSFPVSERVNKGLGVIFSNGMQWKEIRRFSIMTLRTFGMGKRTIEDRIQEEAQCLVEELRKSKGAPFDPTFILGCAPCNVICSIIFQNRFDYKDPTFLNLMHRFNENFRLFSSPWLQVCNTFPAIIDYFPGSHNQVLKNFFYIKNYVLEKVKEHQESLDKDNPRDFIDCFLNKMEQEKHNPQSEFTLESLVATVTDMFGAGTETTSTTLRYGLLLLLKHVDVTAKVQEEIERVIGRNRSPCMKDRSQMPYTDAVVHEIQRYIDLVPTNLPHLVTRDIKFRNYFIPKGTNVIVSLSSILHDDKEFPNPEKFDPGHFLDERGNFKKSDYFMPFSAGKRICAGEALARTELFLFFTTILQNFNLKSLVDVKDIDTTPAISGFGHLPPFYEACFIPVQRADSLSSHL
Description: Approximately 95-day-old male Wistar rats, castrated on the 70th day after birth, were used. The liver microsomes were prepared as previously described. The experiments were performed according to instrumental guidelines for the care and use of laboratory animals.
The metabolism by rat liver microsomes were examined, according to our previously described procedure. Briefly, the microsomal suspension (400–600 μg of protein/2.2 mL, total volume of the reaction mixture) was preincubated with [3H]PROG (20 nM) under the absence or presence of an unlabeled steroid (0.01–10 μM) at 36°C for 30 min. […] After the incubation, two identical samples were mixed and extracted with toluene. The toluene-extractable [3H]PROG metabolites (more than 90%) were isolated by various paper chromatographic systems and then identified by recrysallization method. Other miscellaneous procedures are described in our previous papers.
In the case of 3β-Pregnan-3-one [compound 37], the “[3H]PROG16α-hydroxylation (IC40), given as bound in μM” value is reported as over 10 µM.
With `CC(=O)[C@H]1CC[C@H]2[C@@H]3C[C@@H](O)C4=CC(=O)CC[C@]4(C)[C@H]3CC[C@]12C` [compound 3, 6β-Hydroxyprogesterone] the “[3H]PROG16α-hydroxylation (IC40), given as bound in μM” value was over 10 μM^c.
For `CC(=O)[C@H]1CC[C@H]2[C@@H]3CCC4=CC(=O)CC[C@]4(C)[C@H]3[C@H](O)C[C@]12C` [compound 5, 11α-Hydroxyprogesterone], the “[3H]PROG16α-hydroxylation (IC40), given as bound in μM” value was over 10 µM.
`CC(=O)O[C@@H]1C[C@]2(C)[C@@H](C(C)=O)CC[C@H]2[C@@H]2CCC3=CC(=O)CC[C@]3(C)[C@H]21` [compound 6, 11α-Acetoxyprogesterone] was tested, and the “[3H]PROG16α-hydroxylation (IC40), given as bound in μM” value was over 10 µM.
In the case of `CC(=O)[C@H]1CC[C@H]2[C@@H]3CCC4=CC(=O)CC[C@]4(C)[C@H]3[C@@H](O)C[C@]12C` [compound 7, 11β-Hydroxyprogesterone], the “[3H]PROG16α-hydroxylation (IC40), given as bound in μM” value is reported as over 10 µM.
`CC(=O)[C@H]1[C@H](O)C[C@H]2[C@@H]3CCC4=CC(=O)CC[C@]4(C)[C@H]3CC[C@@]21C` [compound 8, 16α-Hydroxyprogesterone] was tested, and the “[3H]PROG16α-hydroxylation (IC40), given as bound in μM” value was over 10 µM.
With `CC(=O)[C@H]1[C@H](C)C[C@H]2[C@@H]3CCC4=CC(=O)CC[C@]4(C)[C@H]3CC[C@@]21C` [compound 9, 16α-Methylprogesterone] the “[3H]PROG16α-hydroxylation (IC40), given as bound in μM” value was over 10 μM ^d.
`CC(=O)[C@H]1CC[C@H]2[C@@H]3CCC4=CC(=O)CC[C@]4(C)[C@H]3CC[C@]12CO` [compound 10, 18-Hydroxyprogesterone] was tested, and the “[3H]PROG16α-hydroxylation (IC40), given as bound in μM” value was over 10 µM.
For `CC(=O)[C@H]1CC[C@H]2[C@@H]3CCC4=CC(=O)CC[C@]4(CO)[C@H]3CC[C@]12C` [compound 11, 19-Hydroxyprogesterone], the “[3H]PROG16α-hydroxylation (IC40), given as bound in μM” value was over 10 µM.
With `CC(=O)[C@H]1CC[C@H]2[C@@H]3CCC4=CC(=O)CC[C@@H]4[C@H]3CC[C@]12C` [compound 12, 19-Norprogesterone] the “[3H]PROG16α-hydroxylation (IC40), given as bound in μM” value was over 10 µM.
In the case of `C[C@H](O)[C@H]1CC[C@H]2[C@@H]3CCC4=CC(=O)CC[C@]4(C)[C@H]3CC[C@]12C` [compound 13, 20α-Hydroxyprogesterone], the “[3H]PROG16α-hydroxylation (IC40), given as bound in μM” value is reported as over 10 µM.
With `C[C@]12CC[C@H]3[C@@H](CCC4=CC(=O)CC[C@@]43C)[C@@H]1CC[C@@H]2C(=O)CO` [compound 14, 21-Hydroxyprogesterone] the “[3H]PROG16α-hydroxylation (IC40), given as bound in μM” value was over 10 µM.
For `CC(=O)OCC(=O)C1CCC2C3CCC4=CC(=O)CCC4(C)C3CCC12C` (stereo not drawn) [compound 15, 21-Acetoxyprogesterone], the “[3H]PROG16α-hydroxylation (IC40), given as bound in μM” value was over 10 µM.
For `C[C@]12C[C@H](O)[C@H]3[C@@H](CCC4=CC(=O)CC[C@@]43C)[C@@H]1CC[C@@H]2C(=O)CO` [compound 16, Corticosterone], the “[3H]PROG16α-hydroxylation (IC40), given as bound in μM” value was over 10 µM.
In the case of `C[C@H](O)[C@H]1CC[C@H]2[C@@H]3CC=C4C[C@@H](O)CC[C@]4(C)[C@H]3CC[C@]12C` [compound 21, 20α-Hydroxypregnenolone], the “[3H]PROG16α-hydroxylation (IC40), given as bound in μM” value is reported as over 10 µM.
`C[C@]12CC[C@H]3[C@@H](CC=C4C[C@@H](O)CC[C@@]43C)[C@@H]1CC[C@@H]2C(=O)COS(=O)(=O)O` [compound 24, 21-Sulfatepregnenolone] was tested, and the “[3H]PROG16α-hydroxylation (IC40), given as bound in μM” value was over 10 µM.
For `CC[C@H]1CC[C@H]2[C@@H]3CC=C4C[C@@H](O)CC[C@]4(C)[C@H]3CC[C@]12C` [compound 25, 5-Pregnen-3β-ol], the “[3H]PROG16α-hydroxylation (IC40), given as bound in μM” value was over 10 µM.
In the case of `CC(C)CCC[C@@H](C)[C@H]1CC[C@H]2[C@@H]3CC=C4C[C@@H](O)CC[C@]4(C)[C@H]3CC[C@]12C` [compound 26, Cholesterol], the “[3H]PROG16α-hydroxylation (IC40), given as bound in μM” value is reported as over 10 µM.
With `CC(=O)[C@H]1CC[C@H]2[C@@H]3CC[C@H]4C[C@H](OS(=O)(=O)O)CC[C@]4(C)[C@H]3CC[C@]12C` [compound 31, 3α-Sulfate-5 α -pregnan-20-one] the “[3H]PROG16α-hydroxylation (IC40), given as bound in μM” value was over 10 µM.

Same assay, conditions: IC40 of progesterone 1 relative to IC40 of 33
`CC(=O)[C@H]1CC[C@H]2[C@@H]3CC[C@@H]4C[C@H](O)CC[C@]4(C)[C@H]3CC[C@]12C` [compound 33, 3α-Hydroxy-5 β -pregnan-20-one] was tested, and the “observed inhibitory potency index against [3H]PROG 16α-hydroxylation” value was 31.46.

Same assay, conditions: molar concentration of unlabeled steroid causing 40% inhibition; [3H]PROG 20 nM; unlabeled steroid 0.01–10 μM; male rat liver microsomes
For `CC(=O)[C@H]1CC[C@H]2[C@@H]3CCC4=CC(=O)CC[C@]4(C)[C@H]3CC[C@]12C` [compound 1, Progesterone], the “[3H]PROG16α-hydroxylation (IC40)” value was 0.755 µM.
With `CC(=O)[C@H]1CC[C@H]2[C@@H]3CCC4=C[C@@H](O)CC[C@]4(C)[C@H]3CC[C@]12C` [compound 2, 3β-Hydroxyprogesterone] the “[3H]PROG16α-hydroxylation (IC40)” value was 0.255 µM.
With `CC(=O)O[C@@H]1C[C@H]2[C@@H]3CC[C@H](C(C)=O)[C@@]3(C)CC[C@@H]2[C@@]2(C)CCC(=O)C=C12` [compound 4, 6β-Acetoxyprogesterone] the “[3H]PROG16α-hydroxylation (IC40)” value was 0.74 µM.
For `CC(=O)[C@H]1CC[C@H]2[C@@H]3CC=C4C[C@@H](O)CC[C@]4(C)[C@H]3CC[C@]12C` [compound 17, Pregnenolone], the “[3H]PROG16α-hydroxylation (IC40)” value was 0.142 µM.
With `CC(=O)O[C@H]1CC[C@@]2(C)C(=CC[C@H]3[C@@H]4CC[C@H](C(C)=O)[C@@]4(C)CC[C@@H]32)C1` [compound 18, Pregnenolone-3-acetate] the “[3H]PROG16α-hydroxylation (IC40)” value was 0.8 µM.
In the case of `CC(=O)C1CCC2C3CC=C4CC(OS(=O)(=O)O)CCC4(C)C3CCC12C` (stereo not drawn) [compound 19, Pregnenolone-3-sulfate], the “[3H]PROG16α-hydroxylation (IC40)” value is reported as 0.195 µM.
`C[C@]12CC[C@H]3[C@@H](CC=C4C[C@@H](O)CC[C@@]43C)[C@@H]1CC[C@@H]2C(=O)CO` [compound 22, 21-Hydroxypregnenolone] was tested, and the “[3H]PROG16α-hydroxylation (IC40)” value was 0.462 µM.
With `CC(=O)OCC(=O)[C@H]1CC[C@H]2[C@@H]3CC=C4C[C@@H](O)CC[C@]4(C)[C@H]3CC[C@]12C` [compound 23, 21-Acetoxypregnenolone] the “[3H]PROG16α-hydroxylation (IC40)” value was 0.6 µM.
`CC(=O)[C@H]1CC[C@H]2[C@@H]3CC[C@H]4CC(=O)CC[C@]4(C)[C@H]3CC[C@]12C` [compound 27, 5α-Pregnan-3,20-dione] was tested, and the “[3H]PROG16α-hydroxylation (IC40)” value was 0.72 µM.
With `CC(=O)[C@H]1CC[C@H]2[C@@H]3CC[C@@H]4CC(=O)CC[C@]4(C)[C@H]3CC[C@]12C` [compound 28, 5β-Pregnan-3,20-dione] the “[3H]PROG16α-hydroxylation (IC40)” value was 0.395 µM.
For `CC(=O)[C@H]1CC[C@H]2[C@@H]3CC[C@H]4C[C@H](O)CC[C@]4(C)[C@H]3CC[C@]12C` [compound 29, 3α-Hydroxy-5 α -pregnan-20-one], the “[3H]PROG16α-hydroxylation (IC40)” value was 0.062 µM.
With `CC(=O)O[C@@H]1CC[C@@]2(C)[C@@H](CC[C@@H]3[C@@H]2CC[C@]2(C)[C@@H](C(C)=O)CC[C@@H]32)C1` [compound 30, 3α-Acetoxy-5 α -pregnan-20-one] the “[3H]PROG16α-hydroxylation (IC40)” value was 0.41 µM.
For `CC(=O)[C@H]1CC[C@H]2[C@@H]3CC[C@H]4C[C@@H](O)CC[C@]4(C)[C@H]3CC[C@]12C` [compound 32, 3β-Hydroxy-5 α -pregnan-20-one], the “[3H]PROG16α-hydroxylation (IC40)” value was 0.225 µM.
For `CC(=O)[C@H]1CC[C@H]2[C@@H]3CC[C@@H]4C[C@H](O)CC[C@]4(C)[C@H]3CC[C@]12C` [compound 33, 3α-Hydroxy-5 β -pregnan-20-one], the “[3H]PROG16α-hydroxylation (IC40)” value was 0.024 µM.
`CC(=O)[C@H]1CC[C@H]2[C@@H]3CC[C@@H]4C[C@@H](O)CC[C@]4(C)[C@H]3CC[C@]12C` [compound 34, 3β-Hydroxy-5 β -pregnan-20-one] was tested, and the “[3H]PROG16α-hydroxylation (IC40)” value was 0.17 µM.
With `CC(=O)[C@H]1CC[C@H]2[C@@H]3CC[C@H]4C[C@H](O)CC[C@]4(C)[C@H]3[C@@H](O)C[C@]12C` [compound 35, 3α,11β-Dihydroxy-5α-pregnan-20-one] the “[3H]PROG16α-hydroxylation (IC40)” value was 0.15 µM.
